Values after ≈ are worked out from the molar mass of the structure shown. Read-outs that look alike come from different tables or passages of the source.
Tests used:
[1] = Interfacial tension predictions (Washburn method, Fowkes theory); assay type: physicochemical
Protocol: Based on the contact angle data, the surface energy is calculated and polar and dispersive components of surface energy as well as surface polarity are estimated.
A surface tension study was performed to characterize active agent samples, various oils and specific formulations for Surface energy with polar and dispersive components. The Washburn method was used to determine contact angles and the Fowkes theory was used to calculate surface energies.
Surface tension measurements were performed on several oils and the following formulations: OT1.0016P (elastomer-MCT oil-based formulation), OT1.0021P (elastomer-based formulation comprising a combination of MCT oil, squalane and isopropyl isostearate) and OT1.0022P (elastomer-based formulation comprising a combination of MCT oil, squalane and oleyl alcohol).

[2] = tested on: S1P receptors (S1P1 and S1P3-5); details: cited from earlier work
[3] = AD murine model: body weight
Protocol: Atopic Dermatitis is induced by once daily application for 38 days of 100 μl of 0.5% 2,4-dinitrochlorobenzene (DNCB) solution onto the shaved back skin of mice. Starting on day 32, test formulations are administered once daily onto the shaved back skin of mice in addition to DNCB. Several measurements are taken at different time points:
Daily from Day 32: Body weight, mortality, behaviour (scratching), general condition, AD index.

[4] = tested on: Atopic Dermatitis induced by 2,4-dinitrochlorobenzene (DNCB); assay: AD murine model: AD index (ADI, mADI), behaviour, histological analysis of skin; assay type: in vivo; details: DNCB induced mice, Example 41 (combination study)
From the text: As used herein, “Atopic Dermatitis Index (ADI)” refers to the sum of the scores of four factors consisting of: (1) the presence of erythema/haemorrhage on the skin, (2) edema/thickening of the skin, (3) excoriation/erosion of the skin and (4) dryness/peeling of the skin at the area of induction of atopic dermatitis. The sum of the scores of these factors provides a combined ADI, on a scale of 0 to 12. […]
The presence of erythema/haemorrhage is scored based on the following scoring grid: • 0=no or no more erythema/haemorrhage on the skin, • 1=weak erythema/haemorrhage on the skin, • 2=moderate erythema/haemorrhage on the skin, • 3=severe erythema/haemorrhage on the skin.
The presence of edema/thickening is scored based on the following scoring grid: • 0=no or no more edema/thickening of the skin, • 1=weak edema/thickening of the skin, • 2=moderate edema/thickening of the skin, • 3=severe edema/thickening of the skin.
The presence of excoriation/erosion is scored based on the following scoring grid: • 0=no or no more excoriation/erosion of the skin, • 1=weak excoriation/erosion of the skin, • 2=moderate excoriation/erosion of the skin, • 3=severe excoriation/erosion of the skin. […]

[5] = Chemical stability of topical formulations (HPLC); assay type: physicochemical
Protocol: Where another active agent such as fingolimod is present in the formulations the samples are analysed for that active agent and its degradation products by HPLC. […] The gradient elution is employed.

[6] = Toxicokinetic / pK evaluation in Gottingen Minipigs (plasma tofacitinib, whole blood fingolimod and fingolimod phosphate); details: minipig, topical
Protocol: (§1) The animals are not fasted prior to blood collection, with the exception of the intervals that coincide with fasting for clinical pathology collections.
(§2) If necessary, the samples are frozen on dry ice prior to being placed in the freezer. […] Samples are stored at the bioanalytical laboratories in a freezer set to maintain −80±10° C. until analysis.
(§3) Samples designated for analysis of fingolimod and fingolimod phosphate are mixed gently, lysed with an equal volume of deionized water, vortexed for approximately 1 minute, divided into two approximately equal aliquots, transferred to uniquely labeled polypropylene tubes and frozen in a freezer set to maintain −70° C. If necessary, the samples are frozen on dry ice prior to being placed in the freezer. The samples for fingolimod analysis are shipped with a temperature monitoring device to bioanalytical laboratories. Samples are stored at the bioanalytical laboratories in a freezer set to maintain −75±15° C. until analysis.
(§4) Whole blood is analyzed for concentration of fingolimod and fingolimod phosphate using a validated analytical procedure for the simultaneous quantitation of both analytes.
(§5) TK samples collected on Days 49 and 56 from recovery animals in Groups 1, 2, 3, 5, and 6 are also analyzed. Statistical analyses including regression analysis and descriptive statistics including arithmetic means and standard deviations, accuracy, and precision are performed. Incurred sample reanalysis may be performed as part of this study according to the Test Site SOPs.
(§6) A non-compartmental approach consistent with the dermal route of administration is used for parameter estimation.
(§7) Partial AUCs (between 2 defined sample times), and corresponding dose-normalized values, are derived and reported to aid interpretation. Descriptive statistics (e.g., number, arithmetic mean, median, standard deviation, standard error, coefficient of variation) are reported as deemed appropriate, as well as ratios for appropriate grouping and sorting variables (e.g. AUC and/or Cmax female/male ratios, AUC and/or Cmax metabolite/parent drug ratios).

[7] = Skin penetration (IVPT), vertical diffusion cell, LC-MS/MS; assay type: in vitro ADME, human; details: for Dermis concentration, μg/g Based on the Mean (n = 5) / Epidermis concentration, μg/g Based on the Mean (n = 5): estimated, skin 500 μm; for Dermis concentration, μg/g Based on the Mean (n = 5) / Epidermis concentration, μg/g Based on the Mean (n = 5) / estimated concentration of active in epidermis: epidermis assumed 80 μm, density 1.0 g/cm^3; for fingolimod concentration in receptor fluid: quantitation limit of LC-MS method
Protocol: The skin is dosed with approx. 6 mg of formulation to achieve a dose of ˜10 mg/cm2. Receptor solution is collected at pre-determined intervals over the course of 24 hours and analyzed using a liquid chromatography with tandem mass spectrometry (LC-MS/MS) analytical method.
Following 24 hours, the residual formulation is removed from the surface of the skin. The skin surface is tape-stripped up to five times to remove residual formulation and the top of the skin surface layers (Stratum Corneum). The epidermis is then heat-separated from the dermis. The active agent is extracted from the skin layers and the amount of active agent delivered to the epidermis and dermis is then determined by LC-MS/MS.

[8] = Visual solubility determination of Fingolimod free base in organic solvents at RT; assay type: physicochemical; details: for solubility: organic solvent or mixture, thermodynamic from solid, visual determination at RT
Protocol: A visual solubility evaluation of Fingolimod free base was performed.

[9] = in vivo; details: both, Gottingen, minipig, plasma (tofacitinib); whole blood (fingolimod), topical
Protocol: as §1, §2, §3, §4, §5, §6, §7

[10] = tested on: Hartley-derived albino guinea pigs
[11] = 2 months at 40° C., formulation of Table 38
[12] = 2 months at 50° C., formulation of Table 38
[13] = 3 weeks at 5° C., formulation of Table 38
[14] = 3 weeks at 50° C., formulation of Table 38
[15] = Dermis, formulation of Table 42 (fingolimod HCl […])
[16] = Dermis, formulation of Table 43a
[17] = Epidermis, formulation of Table 43a
[18] = Receptor fluid, formulation of Table 42 (fingolimod HCl […])
[19] = Receptor fluid, formulation of Table 43a
[20] = formulation with 1.0% tofacitinib citrate and […] fingolimod hydrochloride

C[C@@H]1CCN(C(=O)CC#N)C[C@@H]1N(C)c1ncnc2[nH]ccc12.O=C(O)CC(O)(CC(=O)O)C(=O)O [Tofacitinib Citrate non-micronized Lot TOF0000004]
Interfacial Tension ([1]; with OT1.0016P): 1.88 mN/m | Interfacial Tension ([1]; with OT1.0021P): 1.45 mN/m | Interfacial Tension ([1]; with Stainless Steel): 1.62 mN/m

fingolimod-phosphate
affinity to four of the five S1P receptors (S1P1 and S1P3-5) [2]: 0.3 to 3.1 nM

Triamcinolone
Body weight D39 Mean ([3]; mouse, in vivo): 17.7 g | Body weight D39 mean ([3]; mouse, in vivo): 17.1 g | Mean Body Weight Change Day 39 − Day 32, Study 1 ([3]; mouse, in vivo): −2.80 | Mean Body Weight Change Day 39 − Day 32, Study 2 ([3]; mouse, in vivo): −2.06 | Mean Body Weight Change d 39 − d 32 ([3]; mouse, in vivo): −2.80

CC1(C)O[C@@H]2C[C@H]3[C@@H]4CCC5=CC(=O)C=C[C@]5(C)[C@@]4(F)[C@@H](O)C[C@]3(C)[C@]2(C(=O)CO)O1 [Triamcinolone acetonide]
Mean body weights values: Weight D 32 ([3]; DNCB induced mice, Example 41, D 32 (treatment start)): 18.31 | Mean body weights values: Weight D 39 ([3]; DNCB induced mice, Example 41, D 39): 15.66 | Mean Body Weight Change d 39 − d 32 ([3]; DNCB induced mice, Example 41, (+) weight gain, (−) weight loss): −2.65

CC1(C)O[C@@H]2C[C@H]3[C@@H]4CCC5=CC(=O)C=C[C@]5(C)[C@@]4(F)[C@@H](O)C[C@]3(C)[C@]2(C(=O)CO)O1 [triamcinolone acetonide]
Mean ADI values (AD Index) D 39 [4]: 0.88

CCCCCCCCc1ccc(CCC(N)(CO)CO)cc1 [fingolimod, 2-amino-2-[2-(4-octylphenyl)ethyl]propane-1,3-diol]
Assay, % LC [5, 11]: 97.2 % LC | Assay, % LC [5, 12]: 95.0 % LC | Assay, % LC [5, 13]: 100.3 % LC | Assay, % LC ([5]; 3 weeks at 40° C., formulation of Table 38): 99.9 % LC | Assay, % LC [5, 14]: 94.1 % LC | Assay, % LC ([5]; Initial, elastomer-based formulation of Table 38 (tofacitinib citrate 1.0%, fingolimod HCl 0.01%)): 99.9 % LC | AUC(0-t) [6]: 3.73 ng·h/mL | Cmax [6]: 0.467 ng/mL | Amount of Fingolimod recovered, % applied dose, Mean (n = 5) [7, 15]: 2.59% | Amount of Fingolimod recovered, ng, Mean (n = 5) [7, 15]: 49.16 ng | Amount of Fingolimod recovered, % applied dose, Mean (n = 5) [7, 16]: 1.44% | Amount of Fingolimod recovered, ng, Mean (n = 5) [7, 16]: 14.82 ng | Amount of Fingolimod recovered, % applied dose, Mean (n = 5) ([7]; Epidermis, formulation of Table 42 (fingolimod HCl […])): 1.98% | Amount of Fingolimod recovered, % applied dose, Mean (n = 5) [7, 17]: 1.59% | Amount of Fingolimod recovered, ng, Mean (n = 5) [7, 17]: 16.21 ng | Amount of Fingolimod recovered, % applied dose, Mean (n = 5) [7, 18]: ND (ND—not detected (below LOQ of 0.25 ng/mL)) | Amount of Fingolimod recovered, ng, Mean (n = 5) [7, 18]: ND (ND—not detected (below LOQ of 0.25 ng/mL)) | Amount of Fingolimod recovered, % applied dose, Mean (n = 5) [7, 19]: ND (ND—not detected (below LOQ of 0.25 ng/ml)) | Amount of Fingolimod recovered, ng, Mean (n = 5) [7, 19]: ND (ND—not detected (below LOQ of 0.25 ng/ml)) | Dermis concentration, μg/g Based on the Mean (n = 5) ([7]; formulation of Table 43a): 0.6 µg/g | Epidermis concentration, μg/g Based on the Mean (n = 5) ([7]; formulation of Table 43a): 3.4 µg/g | fingolimod concentration in receptor fluid ([7]; formulation containing […] of fingolimod hydrochloride): < 0.25 ng/mL | estimated concentration of active in dermis [7, 20]: 0.6 µg/mL | estimated concentration of active in epidermis [7, 20]: 3.4 µg/g | fingolimod concentration in receptor fluid [7, 20]: < 0.25 ng/mL | visual solubility ([8]; alcohols, RT): very good solubility | visual solubility ([8]; most of organic solvents tested, RT): good solubility | solubility ([8]; 2-Methyl tetrahydrofurane): 10000 µg/mL (≈ 32.5 mM) | solubility ([8]; Acetone): 5000 µg/mL (≈ 16.3 mM) | solubility ([8]; Acetonitrile): 1800 µg/mL (≈ 5.85 mM) | solubility ([8]; Dichloromethane): 6700 µg/mL (≈ 21.8 mM) | solubility ([8]; Ethyl acetate): 4000 µg/mL (≈ 13 mM) | solubility ([8]; Isopropanol): 20000 µg/mL (≈ 65 mM) | solubility ([8]; Methyl ethyl ketone): 1200 µg/mL (≈ 3.9 mM) | solubility ([8]; Methyl isobutyl ketone): 5000 µg/mL (≈ 16.3 mM) | solubility ([8]; tert-Butyl methyl ether): 2000 µg/mL (≈ 6.5 mM) | visual solubility ([8]; water, toluene, diisopropyloxide and methyl ethyl ketone): very low soluble

C[C@@H]1CCN(C(=O)CC#N)C[C@@H]1N(C)c1ncnc2[nH]ccc12 [tofacitinib]
Cmax [9]: 1.56 ng/mL | Assay, % LC [5, 11]: 99.2 % LC | Assay, % LC [5, 12]: 98.6 % LC | Assay, % LC [5, 13]: 99.3 % LC | Assay, % LC [5, 14]: 99.1 % LC | Dermis concentration, μg/g Based on the Mean (n = 5) ([7]; formulation of Table 43a): 34.9 µg/g | Epidermis concentration, μg/g Based on the Mean (n = 5) ([7]; formulation of Table 43a): 364.3 µg/g | estimated concentration of active in dermis [7, 20]: 34.9 µg/g | estimated concentration of active in epidermis [7, 20]: 364.3 µg/g

C[C@@H]1CCN(C(=O)CC#N)C[C@@H]1N(C)c1ncnc2[nH]ccc12.O=C(O)CC(O)(CC(=O)O)C(=O)O [Tofacitinib Citrate micronized Lot TOF0000004-04]
Interfacial Tension ([1]; with OT1.0016P): 2.72 mN/m | Interfacial Tension ([1]; with OT1.0021P): 2.17 mN/m | Interfacial Tension ([1]; with OT1.0022P): 1.95 mN/m | Interfacial Tension ([1]; with Stainless Steel): 2.50 mN/m

O=[N+]([O-])c1ccc(Cl)c([N+](=O)[O-])c1 [DNCB, 2,4-dinitrochlorobenzene]
Group mean dermal scores, test animals ([10]; challenge with 0.05% w/v DNCB in acetone and ethanol, control animals 0.25): 0.6 | Group mean dermal scores, test animals ([10]; challenge with 0.1% w/v DNCB in acetone and ethanol, control animals 0.375): 1.45
